From patent publication US6593342B1, “Pharmaceutical compositions comprising 2-quinolones” (Laboratoire L. Lafon, priority 1998, dated 2003)

| Compound | melting point |
| --- | --- |
| COc1ccc(-c2cc3c(OC)cc(OC)cc3nc2OCCCN(C)C)cc1 [Compound 22a] | 54 to 55 °C |
| COc1ccc2[nH]c(=O)c(-c3ccccc3)cc2c1 [Compound 44, 6-Methoxy-3-phenyl-1,2-dihydro-2-quinolinone] | 243 to 244 °C |
| Cc1ccc2[nH]c(=O)c(-c3ccccc3)cc2c1 [Compound 48, 6-Methyl-3-phenyl-1,2-dihydro-2-quinolinone] | 212 to 213 °C |
| COc1cc(OC)c2cc(-c3ccc(OS(=O)(=O)C(F)(F)F)cc3)c(=O)n(C)c2c1 [Compound 45] | 144 to 145 °C |

The next lines start with the values.

| melting point | Compound |
| --- | --- |
| 114 to 115 °C | COc1ccc(-c2cc3c(OC)cc(OC)cc3nc2OCC(=O)OCc2ccccc2)cc1 [Compound 13a, Benzyl 2-([5,7-Dimethoxy-3-(4-methoxyphenyl)-2-quinolinyl]oxy)acetate] |
| 106 to 107 °C | COc1ccc(-c2cc3c(OC)cc(OC)cc3nc2OC)cc1 [Compound 7a, 2,5,7-Trimethoxy-3-(4-methoxyphenyl)quinoline] |
| 49 to 50 °C | COc1ccc(-c2cc3c(OC)cc(OC)cc3nc2OCCN(C)C)cc1 [Compound 23a, N,N-Dimethyl-2-[5,7-dimethoxy-3-(4-methoxyphenyl)-2-quinolyl]oxy-1-ethanamine] |
| 95 to 96 °C | CCOC(=O)COc1nc2cc(OC)cc(OC)c2cc1-c1ccc(OC)cc1 [Compound 11a, Ethyl 2-([5,7-Dimethoxy-3-(4-methoxyphenyl)-2-quinolinyl]oxy)acetate] |
